Laboratory results taken from BigSolDB 2.1.

O=C(O)Cc1ccccc1Cl
solubility (mole fraction)
Details | 273.15 K | 278.15 K | 283.15 K | 288.15 K | 293.15 K | 298.15 K | 303.15 K | 308.15 K | 313.15 K | 318.15 K
in 2-butanone | 0.254 | 0.282 | 0.315 | 0.351 | 0.389 | 0.426 | 0.462 | 0.496 | 0.528 | 0.567
in acetone | 0.209 | 0.225 | 0.242 | 0.261 | 0.281 | 0.303 | 0.326 | 0.352 | 0.38 | 0.412
in acetonitrile | 0.0582 | 0.0738 | 0.0925 | 0.114 | 0.139 | 0.168 | 0.199 | 0.234 | 0.272 | 0.314
in cyclohexane | – | – | 0.00197 | 0.00263 | 0.00346 | 0.00454 | 0.00601 | 0.00799 | 0.0107 | 0.0145
in ethyl acetate | 0.175 | 0.193 | 0.214 | 0.237 | 0.258 | 0.284 | 0.312 | 0.342 | 0.372 | 0.407
in ethylbenzene | 0.0217 | 0.0278 | 0.0348 | 0.0437 | 0.0542 | 0.0678 | 0.0853 | 0.106 | 0.132 | 0.165
in isobutanol | 0.15 | 0.172 | 0.199 | 0.226 | 0.256 | 0.288 | 0.322 | 0.357 | 0.394 | 0.433
in isopropanol | 0.18 | 0.206 | 0.235 | 0.266 | 0.298 | 0.336 | 0.369 | 0.407 | 0.446 | 0.486
in n-butanol | 0.142 | 0.164 | 0.19 | 0.217 | 0.247 | 0.28 | 0.314 | 0.349 | 0.387 | 0.425
in n-propanol | 0.16 | 0.184 | 0.21 | 0.237 | 0.268 | 0.299 | 0.332 | 0.368 | 0.405 | 0.446
in toluene | 0.0241 | 0.0307 | 0.0388 | 0.0491 | 0.0617 | 0.0778 | 0.0975 | 0.122 | 0.153 | 0.191
in water | 0.000141 | 0.000186 | 0.000243 | 0.000311 | 0.000394 | 0.000506 | 0.000645 | 0.000821 | 0.00105 | 0.00134

N=C(Nc1ccccc1)Nc1ccccc1
solubility (mole fraction)
Details | 273.15 K | 275.65 K | 278.15 K | 280.65 K | 283.15 K | 285.65 K
in acetonitrile | 0.00811 | 0.00911 | 0.0103 | 0.011 | 0.012 | 0.0131
in ethanol | 0.0139 | 0.0152 | 0.017 | 0.0191 | 0.0192 | 0.0214
in isobutanol | 0.0128 | 0.0138 | 0.0142 | 0.0166 | 0.0177 | 0.0183
in n-propanol | 0.0152 | 0.0171 | 0.0181 | 0.021 | 0.0215 | 0.0241
in toluene | 0.00134 | 0.00149 | 0.00178 | 0.00189 | 0.00219 | 0.0024
